Assay results reported in US8574914B2, “Methods for mobile zinc measurement” (The General Hospital Corporation, priority 2009, dated 2013).

Assay: fluorescent zinc titration of ZPP1, fit to two-step binding model
Source text: Since ZPP1 contains two zinc-binding units, the following stepwise equilibria describe the binding events.
Two apparent binding constants, (K1app=1.52×10^11 M^−1, K2app=1.02×10^8 M^−1) were obtained by fitting the experimental data to the two-step model with high fidelity.

[1] = fluorescence titration, two-step model fit

What does the source list for `O=C(O)c1ccccc1-c1c2cc(Cl)c(=O)c(CN(Cc3ccccn3)Cc3cnccn3)c-2oc2c(CN(Cc3ccccn3)Cc3cnccn3)c(O)c(Cl)cc12` [ZPP1]?
apparent binding constant K1app (first step zinc binding) [1]: 1.52e+11 M⁻¹; apparent binding constant K2app (second step zinc binding) [1]: 1.02e+08 M⁻¹; zinc equivalents at which fluorescence intensity reaches its maximum (state B): ~2 equiv; fluorescence response on addition of up to 1 equiv of zinc (up to 1 equiv zinc (state A)): only a slight fluorescence increase
